What all share (type): cell-based
The subject of assay [1] is Gram-negative bacteria. Kind of assay: Sensitization to novobiocin, ester and amide side chain compounds (Table 14). As to conditions: strain not given. As to the method: (§1) Aliquots of 1 mL of the suspension were added to test tubes containing 1 mL TSB and incrementally varied concentrations of cholic acid derivatives and/or erythromycin or novobiocin. In the sensitization experiments, erythromycin or novobiocin were added 15 minutes later than the cholic acid derivatives. The samples were subjected to stationary incubation at 37° C. for 24 hours. Sample turbidity was determined by measuring absorption at 760 nm (HP 8453 UV-Visible Chemstation, Hewlett Packard). Additionally, an alliquot from each of the samples showing no measurable turbidity was subcultured on TSA plates (alliquots were diluted to provide fewer than 300 CFU). Colonies that grew on the subculture after overnight incubation were counted and the number of CFU/mL in the samples were calculated. The calculated values were compared to the number of CFU/mL in the original inoculum.
(§2) Ability to permeabilize outer membrane: Compounds 11, 106, and 108-114 (FIG. 1) were tested for antibiotic activity. They were also tested for the ability to permeabilize the outer membrane of Gram-negative bacteria, causing sensitization to hydrophobic antibiotics that cannot cross the outer membrane. The permeabilization of the outer membrane was measured using erythromycin and novobiocin.
(§3) Ester and amide side chains: Additional compounds, for example, compounds with amide and ester side chains, were tested.

The test system of assay [2] is Gram-negative bacteria. Put plainly: Sensitization to erythromycin, ester and amide side chain compounds (Table 14). As to conditions: Table 14; strain not given. The protocol:
as §1, §2, §3

The test system of assay [3] is Gram-negative bacteria. Kind of assay: MIC of ester and amide side chain compounds (Table 14). As to conditions: strain not given. As to the method:
as §1, §3

Each structure is given as a SMILES string.

Turning to `C[C@H](CCCO)[C@H]1CC[C@H]2[C@@H]3[C@H](OC(=O)CN)C[C@@H]4C[C@H](OC(=O)CN)CC[C@]4(C)[C@H]3C[C@H](OC(=O)CN)[C@]12C` [Compound 203a], the “b: concentration of cholic acid derivatives required to lower MIC of novobiocin to 1 μg/ML” value in the assay with Gram-negative bacteria [1] stood at 55 µg/mL. Also, the “a: concentration of cholic acid derivatives required to lower MIC of erythromycin to 1 μg/ML” value with Gram-negative bacteria [2] stood at 18 µg/mL. In the assay on Gram-negative bacteria [3], the MIC (as a rule, the lowest concentration found to suppress growth) amounted to 85 µg/mL.
The matching figures for `C[C@H](CCCO)[C@H]1CC[C@H]2[C@@H]3[C@H](NC(=O)CN)C[C@@H]4C[C@H](NC(=O)CN)CC[C@]4(C)[C@H]3C[C@H](NC(=O)CN)[C@]12C` [Compound 209a]: 75 µg/mL, 25 µg/mL and >100 µg/mL.
On to `C[C@H](CCCO)[C@H]1CC[C@H]2[C@@H]3[C@H](NC(=O)CCN)C[C@@H]4C[C@H](NC(=O)CCN)CC[C@]4(C)[C@H]3C[C@H](NC(=O)CCN)[C@]12C` [Compound 209b], for which the “b: concentration of cholic acid derivatives required to lower MIC of novobiocin to 1 μg/ML” value in the assay on Gram-negative bacteria [1] was determined as 75 µg/mL. For the same compound, the “a: concentration of cholic acid derivatives required to lower MIC of erythromycin to 1 μg/ML” value in the assay with Gram-negative bacteria [2] was found to be 40 µg/mL. Moreover, in the assay on Gram-negative bacteria [3], the MIC was >100 µg/mL.

Values taken from US7598234B2, “Steroid derived antibiotics” (Brigham Young University, priority 1998, dated 2009).
